One experiment deals with Merelbeke soil. The experiment in a line: In soil nitrification inhibition assay, Merelbeke soil. The settings on record: for inhibition of ammonium consumption in soil, in words: 50 μM, one week of treatment; for inhibition at 50 µM: soil, 168 h, 7 days, read-out: % Nitrification inhibition in soil (7 days of incubation, Merelbeke soil). The method, then:
Top layer (0 to 10 cm) soil samples were collected from different fields in Belgium (Merelbeke and Moorslede). Vegetation on the field trial was removed and samples were taken from different plots. All soil samples were mixed and sieved (mesh size 2.8 mm) to filter large debris and homogenize soil. The soil was stored at 5° C. in plastic containers covered with Saran foil to prevent changes in microbial community composition and to maintain the original soil water content. Soil water content was determined by drying 20 g soil for 48 h in a 60° C. oven and measuring weight before and after drying. Based on the soil water content (±20%), compound solutions were prepared so that addition of 200 μl compound and 200 μl NH4Cl solution would result in a final compound concentration of 50 μM and a final NH4^+ concentration of 10 mM. Per treatment, 5 small pots were filled with 20 g soil. Next, the soil was treated first with the respective compound solution and then with the NH4Cl solution. Per tray, positive (50 μM DMP) and negative controls (DMSO) were included. Pots were incubated at 21° C. (6 a.m. to 10 p.m. light) for 7 days. Demineralized water was added to the soil every 2 to 3 days to a soil weight of 20 g. In the end, each sample of 20 g soil was dissolved in 100 ml 1M KCl and shaken for 1 hour, followed by filtration through Whatmann® paper. The filtrate was used to measure pH, NH4^+ and NO3− concentrations. The nitrification inhibitors were applied in a nitrification inhibition assay using agricultural soil. In practice, ammonium with or without the new nitrification inhibitors was added to soil from a field in Merelbeke (Belgium). The ammonium level was measured at the start of the experiment and at the end of the experiment, after one week of incubation. A nitrification inhibition percentage was calculated by comparing the reduction in ammonium level with the nitrification inhibitor to the reduction in ammonium without the nitrification inhibitor. Ammonium was added to soil with a high nitrification activity and treated with the nitrification inhibitors (final concentration of 50 μM). […] This validates that the new nitrification inhibitors are effectively inhibiting ammonia oxidation by soil communities.

For experiment [1], the system named is NH3 or NH2OH oxidation in N. europaea cells. The experiment in a line: Nitrosomonas europaea ammonia vs. hydroxylamine oxidation assay. It is filed as cell-based. The settings on record: compounds 50 μM, NO2- after 30 min; for Nitrification from NH2OH (% compared to DMSO): 1 mM NH2OH as N-source; for Nitrification from NH3 (% compared to DMSO): NH4+ 1 mM as N-source. The procedure:
Two days old, late-log phase cultures with a NO2− concentration between 10 and 20 mM were washed 3 times in fresh growth medium (without N) and finally 4 times overconcentrated via centrifugation (4000 rpm, 15 min, 4° C.). Transparent, flat bottom 96-well plate (Cat. No. 353072, Falcon® 96 Well Clear Flat Bottom Microplate, Corning®) were filled with 150 μl culture per well using a dispenser (Multidrop™ Combi Reagent Dispenser, Thermo Scientific™). Compounds (final concentration 50 μM) were added in triplicate to the multi-well plate by use of a Tecan robot (Freedom EVO®, Tecan). Thiourea (positive control for inhibition of NH3 oxidation—final concentration 100 μM) and phenylhydrazine hydrochloride (positive control for inhibition of NH2OH oxidation—final concentration 1 mM) were added to the outer two columns. Each plate was made in duplicate to add either 500 μM (NH4)2SO4 (final [NH4+]=1 mM) or 1 mM NH2OH. All plates were separately wrapped in Parafilm. Stacks of 4 plates were put on top of a 96-well plate filled with 100 μl MilliQ per well, covered with aluminum foil and shaken (±150 rpm) at 28° C. To prevent read-out of secondary effects on NO2− production, NO2− was measured only 30 min later. For this, the samples were first 2 times diluted by pipetting 15 μl in 15 μl fresh growth medium in 96-well intermediate plates (Cat. Ref. PCR-96-FS-C, 96-well PCR Microplate, Axygen®) to then mix 15 μl of the diluted samples with 15 μl Griess reagent in the wells of a transparent, flat bottom 384-well plate (Cat. No. X^7001, Low Profile Microplate, Molecular Devices) that was measured spectrophotometrically at 540 nm (EnVision, Perkin Elmer®).
To get insights on the targeted metabolic pathway and to discriminate between compounds that specifically affect NH3 oxidation or that affect another pathway, three representative novel nitrification inhibitors (Examples 1, 5 and 6) were tested in the “ammonia vs hydroxylamine oxidation assay” in which NO2− production from NH3 was compared with NO2− production from NH2OH.

The test system of the next experiment is Moorslede soil. Kind of experiment: In soil nitrification inhibition assay, Moorslede soil. Conditions: for inhibition at 50 µM / inhibition at 5 µM / inhibition at 20 µM: soil. The method, then:
Top layer (0 to 10 cm) soil samples were collected from different fields in Belgium (Merelbeke and Moorslede). Vegetation on the field trial was removed and samples were taken from different plots. All soil samples were mixed and sieved (mesh size 2.8 mm) to filter large debris and homogenize soil. The soil was stored at 5° C. in plastic containers covered with Saran foil to prevent changes in microbial community composition and to maintain the original soil water content.
Soil water content was determined by drying 20 g soil for 48 h in a 60° C. oven and measuring weight before and after drying. Based on the soil water content (±20%), compound solutions were prepared so that addition of 200 μl compound and 200 μl NH4Cl solution would result in a final compound concentration of 50 μM and a final NH4^+ concentration of 10 mM. Per treatment, 5 small pots were filled with 20 g soil. Next, the soil was treated first with the respective compound solution and then with the NH4Cl solution. Per tray, positive (50 μM DMP) and negative controls (DMSO) were included. Pots were incubated at 21° C. (6 a.m. to 10 p.m. light) for 7 days. Demineralized water was added to the soil every 2 to 3 days to a soil weight of 20 g. In the end, each sample of 20 g soil was dissolved in 100 ml 1M KCl and shaken for 1 hour, followed by filtration through Whatmann® paper. The filtrate was used to measure pH, NH4^+ and NO3− concentrations.
A set of examples was tested in the same conditions (Moorslede soil, 3 days of incubation) at a concentration of 50 μM.
Another set of examples was tested in different concentrations in Moorslede soil as well, and were sampled after 5 days.
The effect of 3H-1,3-thiazole-2-thione was tested in soil in accordance with the test described above in section 3.3.

[2] abbreviates: 72 h, 3 days, read-out: % Nitrification inhibition in soil (3 days of incubation, Moorslede soil) at 50 μM.
Setting [3] is: 120 h, 5 days, read-out: % Nitrification inhibition in soil (5 days of incubation, Moorslede soil) at indicated concentration.
[4] abbreviates: 120 h, 20 μM, 5 days, read-out: % Nitrification inhibition in soil (5 days of incubation, Moorslede soil) at indicated concentration.

Like-named read-outs stand apart in the source and are kept apart here.

Turning to `CN(Cc1c(Cl)nc2sccn12)CN1CCSC1=S` [Example 1, 3-[[(6-chloroimidazo[2,1-b][1,3]thiazol-5-yl)methyl-methylamino]methyl]-1,3-thiazolidine-2-thione], in the experiment with Merelbeke soil, the “inhibition of ammonium consumption in soil, in words” value is on record as “strongly inhibited the ammonium consumption” and the inhibition at 50 µM was found to be 60%. In experiment [1], the “Nitrification from NH2OH (% compared to DMSO)” value was 81% and the “Nitrification from NH3 (% compared to DMSO)” value was determined as 12%.

As for `CN(Cc1nc2ccccc2s1)CN1CCOC1=S` [Example 5, 3-[[1,3-benzothiazol-2-ylmethyl(methyl)amino]methyl]-1,3-oxazolidine-2-thione], in the experiment on Merelbeke soil, the “inhibition of ammonium consumption in soil, in words” value is “significant inhibition” and the inhibition at 50 µM was determined as 14%. In experiment [1], the “Nitrification from NH2OH (% compared to DMSO)” value was found to be 77% and the “Nitrification from NH3 (% compared to DMSO)” value turned out to be 17%.

Consider `S=C1NCCO1` [Example 7], for which the inhibition at 50 µM with Moorslede soil (setting [2]) turned out to be 100%. For the same molecule, in the experiment with Moorslede soil (setting [3]), the inhibition at 5 µM came to 8% and the inhibition at 50 µM is 38%. Moreover, in the experiment with Moorslede soil (setting [4]), the inhibition at 20 µM is 32%.

For the molecule `S=c1[nH]ccs1` [Example 24, 3H-1,3-thiazole-2-thione], the “nitrification inhibition in soil, in words” value in the experiment on Moorslede soil (20 μM, 5 days) is listed as “effectively inhibits nitrification in soil”. For the same molecule, the inhibition at 50 µM in the experiment on Moorslede soil (setting [2]) came out at 40%. In addition, the inhibition at 20 µM with Moorslede soil (120 h, 20 μM, 5 days, read-out: Average % nitrification inhibition in soil (5 days of incubation, Moorslede soil) at 20 μM) turned out to be 14%.

In the case of `CSc1nccs1` [Example 25, 2-(methylsulfanyI)-1,3-thiazole], the figures for the inhibition at 50 µM in the experiment on Moorslede soil (setting [2]) and in the experiment with Moorslede soil (setting [3]) were 73% and 30%, respectively. Further, the inhibition at 5 µM in the experiment on Moorslede soil (setting [3]) amounted to 3%. In the experiment with Moorslede soil (setting [4]), the inhibition at 20 µM worked out at 14%.

For the origin of these results see patent US20230416168A1 (EUROCHEM ANTWERPEN, priority 2020, published 2023).
